Counter-ions that a name gives are not always drawn.

Data set [1] relates to fatty acid synthesis (liver slices of rat). Nature of the data set: lipid biosynthesis by tissue slices of liver of rat: fatty acid synthesis. Type of data set: cell-based. To be noted: 10 μg/ml, percentage to the control; for activity at 10 µg/mL: Rattus norvegicus, 2 h, read-out: Fatty Acid Synth.; for Fatty Acid Synth.: 120 min. As for the experimental part: (§1) 5) Action of the compounds of the present invention to lipid biosynthesis by tissue slices of liver of rat
(§2) Test method: Krebs-Ringer-Bicarbonate solution (1 ml) containing 1 mM of ^14 C-acetic acid and 10 μg/ml of the test substance was added to 100 mg of liver slices of rat, the air was substituted with a mixed gas (oxygen:carbon dioxide=95:5) and incubation was conducted at 37° C. for 2 hours. After completion of the reaction, 15% ethanolic solution of potassium hydroxide was added and saponification was conducted at 75° C. for 2 hours. A part of the saponified solution was subjected to a measurment of protein. Residual saponified solution was extracted with petroleum ether and the radioactivity of the petroleum ether layer was measured to determine the cholesterol synthesizing activity. The aqueous layer was acidified with 6N hydrochloric acid, extracted with petroleum ether and the radioactivity of the extract was measured to determine fatty acid synthesizing activity. The values were expressed in terms of percentage to the control after calculating the mol numbers (nmol/mg) of the ^14 C-acetic acid incorporated into each extract per protein (nmol/mg protein).

For data set [2], the system named is cholesterol synthesis (liver slices of rat). Nature of the data set: lipid biosynthesis by tissue slices of liver of rat: cholesterol synthesis. It is filed as cell-based. The settings on record: 10 μg/ml, percentage to the control; for activity at 10 µg/mL: Rattus norvegicus, 2 h, read-out: Cholesterol Synth.; for Cholesterol Synth.: 120 min. As for the experimental part:
as §1, §2

The test system of data set [3] is total cholesterol (TC) in serum. As to the kind of experiment: lowering total cholesterol (TC) in serum using normal rhesus monkeys. The settings on record: oral. Type of data set: in vivo. The text has this: 1) An action of lowering total cholesterol (TC) in serum using normal rhesus monkeys. Test Method: Male rhesus monkeys of 2-5 years age (body weight: 3.0-6.4 kg; Experiment No.1) or male rhesus monkeys of 2-6 years age (body weight: 3.5-8.0 kg; Expt. Nos. 2, 3 and 4) were subjected to the experiments. During the experiment, solid feed (manufactured by Oriental Yeast) was given at the dose of 150 g once daily. Each group consisted of 2 to 6 monkeys. The substance to be tested was in a form of suspension in 0.5% methylcellulos solution. The suspension was given orally using rubber probe at the dose of 30, 50 or 100 mg/kg for seven days (Expt. Nos. 1 and 2(2)) or for 28 days (Expt. Nos. 2(1), 3 and 4). Blood was taken from saphena in lower limbs one week and immediately before the administration and also 7, 14, 21 and 28 days after the administration of the suspension whereby serum TC was measured. The change rate of serum TC was calculated by the following expression. The change rate of serum TC=(ATC-BTC)/BTC×100 In the expression, ATC is the TC after administration of the substance tested while BTC is the TC before the administration (average of those one week and immediately before the administration).

In the next data set the test system is serum TC. As to the kind of experiment: Serum TC lowering action in normal crab-eating macaques. It is filed as in vivo. The text has this:
2) Serum TC lowering action in normal crab-eating macaques.
Test Method: Male crab-eating macaques (body weight: 2.5-6.6 kg) were subjected to the experiments. During the expriment period, the feed (manufactured by Oriental Yeast) containing 0.1% (Expt. No. 1) or 0.3% (Expt. No. 2) of the compound of Example 4 was given once daily a 35 g/kg for 5 weeks (0.1%) or for 8 weeks (0.3%). Usual feed for monkeys was given to the control group. Blood was taken immediately before the administration and 1, 2 and 5 weeks after the administration in the case of 0.1% mixed feed or, in the case of 0.3% mixed feed, immediately before and 2, 4, 6 and 8 weeks after the administration. All operations for taking blood were conducted prior to giving the feed and the serum TC therein was measured. The change rate of the serum TC was calculated by the following expression.
The change rate of serum TC=(ATC-BTC)/BTC×100
In the expression, ATC is the TC after administration of the substance tested and BTC is the TC immediately before administration.

In another data set the test system is Mice of ddY-strain. Nature of the data set: Acute Toxicity. Type of data set: in vivo. To be noted: oral, 2 g/kg. As for the experimental part:
Mice of ddY-strain (7 weeks age; four mice per group) were fasted overnight, the compound of Example 4 of the present invention suspended in 0.5% methylcellulose solution was orally administered at 2 g/kg and the general symptoms until 3 hours after that and those until one week thereafter were checked.

In data set [4] the test system is Lp(a). As to the kind of experiment: Influence on Lp(a): lowering Lp(a) in plasma in crab-eating monkeys. It is filed as in vivo. To be noted: 0.3% in feed, average ± S.E. The method, then: Five to six crab-eating monkeys (male; body weight ranging 5-9 kg) as one group were fed and, to the group administered with the test sample, the feed containing 0.3% of this invention compound (that of Example 4) was fed while, to the control group, usual feed was given. The Lp(a) concentrations in the plasma were measured by the following method at the initiation of the administration, 13 weeks thereafter and 5 weeks after completion of the administration.
Commercially-available kit manufactured by Biopool Co, was used. In accordance with the procedures as given in the kit, PET buffer and sample buffer were prepared. To 20 μl of the plasma was added 1 ml of sample buffer and to 10 μl or 20 μl the resulting diluted liquid was further added 1.01 ml or 1 ml of the sample buffer to that the liquid diluted to an extent of 5202 times or 2601 times was prepared. In accordance with the steps as instructed by the kit, each 20 μl of the diluted sample was added to each well and measurement was conducted by duplicate. The result was calculated from the working curve prepared from the data obtained for the standard human Lp(a) in the kit.

Data set [5] deals with fatty acid synthesis (liver slices of rat). As to the kind of experiment: lipid biosynthesis of tissue slices of liver of rat (part 2): fatty acid synthesis. It is filed as cell-based. To be noted: 2 h, 10 μg/ml, percentage to the control. As for the experimental part:
as §2
(§3) 6) Action of the compounds of the present invention to lipid biosynthesis of tissue slices of liver of rat (part 2)
(§4) The activity of the present invention compound was measured by the same manner as above 5). The values were expressed in terms of percentage to the control after calculating the mol numbers (nmol/mg) of the ^14 C-acetic acid incorporated into each extract per protein (nmol/mg protein).

Data set [6] has as its system cholesterol synthesis (liver slices of rat). As to the kind of experiment: lipid biosynthesis of tissue slices of liver of rat (part 2): cholesterol synthesis. It is filed as cell-based. To be noted: 2 h, 10 μg/ml, percentage to the control. The method, then:
as §2, §3, §4

The test system of data set [7] is Lp(a). The settings on record: J. Internal Medicine 226 271-276 (1989); cited from earlier work.

`CC(C)(C)c1ccc2oc(C(O)COc3ccc(C(=O)O)cc3)cc2c1` (single isomer, unassigned; (+)) [Example 11, (+)-5-tert-Butyl-2-[2-(4-carboxyphenoxy)-1-hydroxyethyl]benzofuran]: the activity at 10 µg/mL is 12% in data set [1] (Expt. 1), 18% in data set [1] (Expt. 2), 35% in data set [2] (Expt. 1) and 24% in data set [2] (Expt. 2).

On to `CC(C)(C)c1ccc2oc(C(O)COc3ccc(C(=O)O)cc3)cc2c1` (single isomer, unassigned; (-)) [Example 12, (-)-5-tert-Butyl-2-[2-(4-carboxyphenoxy)-1-hydroxyethyl]benzofuran], for which the entries for the “Fatty Acid Synth.” value in [1] (Expt. 1) and in data set [1] (Expt. 2) were 16% and 14%, respectively. The “Cholesterol Synth.” value in data set [2] (Expt. 1) amounted to 33%; in data set [2] (Expt. 2) it was 27%.

As for `CC(C)(Oc1ccc(CCNC(=O)c2ccc(Cl)cc2)cc1)C(=O)O` [Bezafibrate, reference compound], the “TC Change Rate” value in data set [3] (100 mg/kg, after 7 days) is -13%; in data set [3] (100 mg/kg, after 14 days), -10%; in data set [3] (100 mg/kg, after 21 days) it was 3%; in [3] (100 mg/kg, after 28 days) it was -7%.

Take `CC(C)(C)c1ccc2oc(C(O)COc3ccc(C(=O)O)cc3)cc2c1` (stereo not shown) [Example 4, 5-tert-Butyl-2-[2-(4-carboxyphenoxy)-1-hydroxyethyl]benzofuran]: the “TC Change Rate” value in the data set on serum TC (0.1% in the feed, after 1 week) is recorded as 16%; with serum TC (0.1% in the feed, after 2 weeks), -18%; in the data set on serum TC (0.1% in the feed, after 5 weeks), -31%; in the data set on serum TC (0.3% in the feed, after 2 weeks), -32%; with serum TC (0.3% in the feed, after 4 weeks), -46%; with serum TC (0.3% in the feed, after 6 weeks), -42%. Moreover, in the data set on serum TC (0.3% in the feed, after 8 weeks), the “TC Change Rate” value is on record as -37%. In addition, in the data set with Mice of ddY-strain (observed until one week), the “Acute toxicity: deaths” value was “no animals tested were dead”. Further, in the data set on Mice of ddY-strain (until 3 hours and until one week thereafter), the “Acute toxicity: general symptoms” value is “no abnormal symptoms were noticed”. For the same molecule, the “Plasma Lp(a)” value in the data set on Lp(a) [4] (5 weeks after completion of administration) was 60.1 ± 7.9 mg/dL; with Lp(a) [4] (13 weeks thereafter), 9.2 ± 1.2 mg/dL; in the data set on Lp(a) [4] (Immed. after administration (text: at the initiation)), 73.2 ± 8.5 mg/dL. Moreover, the activity at 10 µg/mL is 20% in data set [1] (Expt. 1); 12% in [1] (Expt. 2); 41% in data set [2] (Expt. 1); 27% in data set [2] (Expt. 2); 29% in data set [5]; 61% in [6].

On to `CC(C)c1ccc2oc(C(O)COc3ccc(C(=O)O)cc3)cc2c1` (stereo not shown) [Example 6, 2-[2-(4-Carboxyphenoxy)-1-hydroxyethyl]5-isopropylbenzofuran], for which, in data set [3] (100 mg/kg, after 7 days), the “TC Change Rate” value is -42%.

Turning to `CC(C)c1ccc2oc(C(O)COc3ccc(C(=O)O)cc3)cc2c1` (stereo not shown) [Example 8, 2-[2-(4-Carboxyphenoxy)-1-hydroxyethyl]-5-isopropylbenzofuran sodium salt], the “TC Change Rate” value was -31% in data set [3] (50 mg/kg, after 7 days); -31% in [3] (50 mg/kg, after 14 days); -44% in [3] (50 mg/kg, after 21 days); -51% in data set [3] (50 mg/kg, after 28 days).

As for `CC(C)c1ccc2oc(C(O)COc3ccc(C(=O)O)cc3)cc2c1` (stereo not shown) [Example 9, 2-[2-(4-Carboxyphenoxy)-1-hydroxyethyl]-5-isopropylbenzofuran calcium salt], the “TC Change Rate” value in [3] (30 mg/kg, after 7 days) is -19%; in data set [3] (30 mg/kg, after 14 days), -34%; in data set [3] (30 mg/kg, after 21 days), -29%; in data set [3] (30 mg/kg, after 28 days), -24%.

Turning to `CC(C)c1ccc2oc(C(O)COc3ccc(CO)cc3)cc2c1` (stereo not shown) [Example 10, 2-[1-Hydroxy-2-(4-hydroxymethylphenoxy)ethyl]-5-isopropylbenzofuran], the “TC Change Rate” value in data set [3] (100 mg/kg, after 7 days) is recorded as -32%.

In the case of `CC(C)(C)c1ccc2oc(C(=O)COc3ccc(C(=O)O)cc3)cc2c1` [Example 14, 5-tert-Butyl-2-(4-carboxyphenoxyacetyl)benzofuran], the activity at 10 µg/mL in data set [5] amounted to 32%; in data set [6], 64%.

In the case of `CC(=O)OC(COc1ccc(C(=O)O)cc1)c1cc2cc(C(C)C)ccc2o1` (stereo not shown) [Example 17, 2-[1-Acetoxy-2-(4-carboxyphenoxy)ethyl]-5-isopropylbenzofuran], the activity at 10 µg/mL in data set [5] came out at 33%; in [6], 66%.

With `O=C(O)c1cccnc1` [Nicotinic acid], in the data set on Lp(a) [7], the adverse reactions entry is “flushing” and the “concentration of Lp(a) in blood” value was “lowers the concentration of Lp(a) in blood”.

The values above are taken from patent US5432195A, “Benzofuran derivative and pharmaceutical composition” (Nippon Shinyaku Company Limited, priority 1991, dated 1995).
